Reference: US20110071289A1, “AMINOPYRAZOLE AMIDE DERIVATIVE” (DAINIPPON SUMITOMO PHARMA CO., LTD., priority 2007, published 2011)

How the values were obtained:
[1] = tested on: cortisone reducing activity of cultured human adipocytes; experiment: Inhibitory activity assay for cortisone reducing activity of cultured human adipocytes; assay type: cell-based; conditions: 100 nM [1,2-3H] cortisone, 37° C. for 3 hours
Experimental: Normal human proadipocytes (HPrAD-vis, Cambrex) were inoculated on 48 well plate, and differentiated according to a protocol attached to a kit. Media for cells on 9-11th day of differentiation were changed to 0.2 ml of D-MEM media (GIBCO, Inc.) containing 100 nM [1,2-^3H] cortisone (1 μCi/well, Muromati Yakuhin), 0.5% DMSO, test compound (DMSO only for test compound-addition districts and test compound additive-free districts). After incubation at 37° C. for 3 hours, all media were collected. As background districts, cell additive-free media were used. Media were mixed with ethyl acetate (0.1 ml) in Eppendorf tube. The mixture was vortexed, and then centrifuged at 5,000 rpm×1 minute at room temperature to separate ethyl acetate (upper layer). Ethyl acetate (10 μl) was spotted on aluminum plate for thin-layer chromatography (silica gel 60 angstrom, Merck, referred to as TLC plate hereinafter). To a sealed vessel was added chloroform/methanol (90:10, v/v) as an eluent, and TLC plate was developed and then dried at room temperature. To the dried TLC plate was exposed an imaging plate (TR-2040, FUJIFILM) over 16 or more hours. After exposure, the imaging plate was analyzed by Bioimage analyzer (BAS2500, FUJIFILM), and [^3H] radioactivity of the spot corresponding to cortisol on TLC plate was determined Inhibitory activities of cortisone reducing activities of test compounds were calculated as below.
(Inhibitory activity (%))=100×((Test compound additive-free districts)−(Test compound-addition districts))/((Test compound additive-free districts)−(Background districts))
IC50 values were calculated by a linear regression of logarithmic values of analyte concentrations and inhibitory activity values using 2-point data wherein inhibitory activities indicated values around 50%. […] IC50 values for human adipocyte cortisone reducing activities of the following inventive compounds were determined

[2] = target: T1, human 11βHSD1 (Homo sapiens, UniProt P28845); experiment: Measurement of human 11βHSD1 inhibitory activity (HTRF cortisol detection); assay type: biochemical; conditions: human 11βHSD1 enzyme fraction, 20 nM cortisone, 37° C. for 2 hours
T1 construct: made in house; host or cells: CHO-K1 cells stably transfected with pCMV-Tag 2B plasmid; pellet after ultracentrifugation at 100,000 g
T1 sequence (P28845 whole entry): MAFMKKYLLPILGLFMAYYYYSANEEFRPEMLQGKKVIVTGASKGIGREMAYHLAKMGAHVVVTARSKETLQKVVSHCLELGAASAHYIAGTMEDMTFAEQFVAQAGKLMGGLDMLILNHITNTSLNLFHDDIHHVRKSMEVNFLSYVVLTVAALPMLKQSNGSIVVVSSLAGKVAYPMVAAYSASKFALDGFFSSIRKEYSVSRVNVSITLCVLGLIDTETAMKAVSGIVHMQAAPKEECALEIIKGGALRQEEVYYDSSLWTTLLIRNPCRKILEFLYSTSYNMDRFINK
Source text: A sequence containing ORF of human 11βHSD1 gene (GenBank Accession No. BC012593) was amplified according to PCR technique which was one of conventional methods, and digested by a restriction enzyme BamHI/XhoI. 2 kb of DNA fragments obtained from agarose gels were inserted into pCMV-Tag 2B plasmids (Stratagene) according to a conventional method. The plasmids prepared in Escherichia coli in large amounts were transformed into CHO-K1 cells, and then cells stably expressing human 11βHSD1 genes were selected by medium containing 400 μg/ml G-418 solution (GIBCO, Inc.) containing media. The resulting stably expressing cells were incubated up to −90% confluent in F-12 medium (Nacalai Tesque, Inc.) containing 10% charcoal-dextran treated fetal bovine serum (Hyclone), 1% penicillin-streptomycin (Nacalai Tesque, Inc.) and 400 μg/ml G-418. The resultant cells were treated by tripsin, and the obtained cells were suspended in the above media (1 L) and seeded in cell stack 10 chamber (Corning) in total amounts. The mixture was incubated in CO2 incubator (5% CO2, 37° C.) for 4-5 days, and then treated by tripsin. Total amounts of the obtained cells were washed with PBS buffer (GIBCO, Inc.), and stored at −80° C. […]
A test compound and cortisone (Sigma) was diluted with buffer (50 mM HEPES pH7.3, 150 mM NaCl, 1 mM EDTA) to prepare a substrate solution containing a test compound (50 mM HEPES pH7.3, 150 mM NaCl, 1 mM EDTA, 1 mM NADPH, 20 nM cortisone) (2% DMSO solution), and the solution was added to 384-well low-volume plate (manufactured by Greiner, No. 3782086) in 4 μl/well. […] After the enzyme reaction, the produced cortisol was detected by Homogeneous time-resolved fluorescence (HTRF) to determine enzyme inhibitory activities. […] A fluorescence intensity was determined by 2120 EnVision® Multilabel counter (PerkinElmer) to calculate enzyme inhibitory activities from 2 wavelengths of fluorescence intensity ratios (665 nm/620 nm).
Each inhibitory activity (%) of each test compound was calculated from the average value (%) of inhibitory activities of 4 wells under the same condition. […]

Row | IC50 ([1]; Adipocyte) [nM] | IC50 [2] [nM] | SMILES | further results
1 | – | 32 | CN(C)c1c(Cl)c(C(=O)N[C@H]2C3CC4CC2C[C@](C(N)=O)(C4)C3)nn1C [Example 11, N-[(E)-5-Carbamoyladamantan-2-yl]-4-chloro-5-(dimethylamino)-1-methyl-1H-pyrazole-3-carboxamide] | –
2 | 6.4 | – | CN(CC1CCN(c2ccc(C#N)cn2)CC1)c1c(Cl)c(C(=O)N[C@H]2C3CC4CC2C[C@](O)(C4)C3)nn1C [Example 166, 4-Chloro-5-[{[1-(5-cyanopyridin-2-yl)piperidin-4-yl]methyl}(methyl)amino]-N-[(E)-5-hydroxy-2-adamantyl]-1-methyl-1H-pyrazole-3-carboxamide] | –

Further lines, the compound ahead of its results:

Row | SMILES | IC50 ([1]; Adipocyte) [nM] | IC50 [2] [nM] | further results
3 | CC(C)N(C)c1cc(C(=O)N[C@H]2C3CC4CC2C[C@](C(N)=O)(C4)C3)nn1C [Example 8, N-[(E)-5-Carbamoyladamantan-2-yl]-5-[isopropyl(methyl)amino]-1-methyl-1H-pyrazole-3-carboxamide] | 8.7 | – | –
4 | CN(CC1CC1)c1cc(C(=O)N[C@H]2C3CC4CC2C[C@](C(N)=O)(C4)C3)nn1C [Example 15, N-[(E)-5-Carbamoyladamantan-2-yl]-5-[(cyclopropylmethyl)(methyl)amino]-1-methyl-1H-pyrazole-3-carboxamide] | – | 39 | –
5 | CN(c1cc(C(=O)N[C@H]2C3CC4CC2C[C@](C(N)=O)(C4)C3)nn1C)C1CCC1 [Example 19, N-[(E)-5-Carbamoyladamantan-2-yl]-5-[cyclobutyl(methyl)amino]-1-methyl-1H-pyrazole-3-carboxamide] | – | 25 | –
6 | COc1ccc(C2(N(C)c3c(Cl)c(C(=O)NC4C5CC6CC4CC(C(N)=O)(C6)C5)nn3C)CC2)cc1 (stereo not drawn) [Example 22, N-[(E)-5-(Aminocarbonyl)-2-adamantyl]-4-chloro-5-[[1-(4-methoxyphenyl)cyclopropyl](methyl)amino]-1-methyl-1H-pyrazole-3-carboxamide] | – | – | IC50 [1]: 1.8 nM
